Results reported in the NIST ThermoML archive (doi:10.1016/j.tca.2016.08.006).
Where “and” joins values, the source holds several entries; their conditions need not be identical. Equal entries are not always repeated.

How the values were obtained:
[1] = molar heat capacity at constant pressure; settings: 101.33 kPa, Crystal, Vacuum adiabatic calorimetry
[2] = 101.33 kPa, Crystal, Vacuum adiabatic calorimetry

[S-2].[Zn+2] [zinc sulfide]
Settings | molar entropy, [2] [J/K/mol] | molar heat capacity at constant pressure, [1]
1 K | 3.1e-05 | 0.000119 J/K/mol
2 K | 0.00031 | 0.000958 J/K/mol
4 K | 0.002561 | 0.007765 J/K/mol
6 K | 0.00879 | 0.02685 J/K/mol
8 K | 0.0213 | 0.06618 J/K/mol
10 K | 0.043 | 0.1376 J/K/mol
12 K | 0.078 | 0.2601 J/K/mol
13.23 K | – | 0.1984 J/K/mol
14 K | 0.1317 | 0.4569 J/K/mol
16 K | 0.2106 | 0.7475 J/K/mol
16.01 K | – | 0.5445 J/K/mol
17.97 K | – | 1.025 J/K/mol
18 K | 0.3203 | 1.14 J/K/mol
19.61 K | – | 1.553 J/K/mol
20 K | 0.4649 | 1.628 J/K/mol
21.54 K | – | 2.093 J/K/mol
23.46 K | – | 2.68 J/K/mol
25 K | 0.987 | 3.17 J/K/mol
25.99 K | – | 3.508 J/K/mol
28.89 K | – | 4.52 J/K/mol
30 K | 1.72 | 4.941 J/K/mol
31.66 K | – | 5.487 J/K/mol
34.78 K | – | 6.6 J/K/mol
35 K | 2.617 | 6.734 J/K/mol
37.93 K | – | 7.702 J/K/mol
40 K | 3.629 | 8.454 J/K/mol
41.05 K | – | 8.761 J/K/mol
44.22 K | – | 9.788 J/K/mol
45 K | 4.72 | 10.08 J/K/mol
47.06 K | – | 10.71 J/K/mol
50 K | 5.863 | 11.63 J/K/mol
51.43 K | – | 12.16 J/K/mol
53.49 K | – | 12.83 J/K/mol
55 K | 7.041 | 13.11 J/K/mol
55.51 K | – | 13.31 J/K/mol
57.5 K | – | 14 J/K/mol
59.41 K | – | 14.51 J/K/mol
60 K | 8.244 | 14.56 J/K/mol
61.72 K | – | 15.17 J/K/mol
64.45 K | – | 15.93 J/K/mol
65 K | 9.466 | 15.99 J/K/mol
67.18 K | – | 16.76 J/K/mol
69.7 K | – | 17.39 J/K/mol
70 K | 10.7 | 17.39 J/K/mol
72.52 K | – | 18.2 J/K/mol
75 K | 11.95 | 18.77 J/K/mol
75.26 K | – | 18.97 J/K/mol
77.99 K | – | 19.74 J/K/mol
80 K | 13.2 | 20.13 J/K/mol
80.73 K | – | 20.47 J/K/mol
83.59 K | – | 21.24 J/K/mol
85 K | 14.47 | 21.46 J/K/mol
86.48 K | – | 22.17 J/K/mol
90 K | 15.73 | 22.77 J/K/mol
91.62 K | – | 23.27 J/K/mol
95 K | 16.99 | 24.03 J/K/mol
95.13 K | – | 24.19 J/K/mol
98.85 K | – | 25.12 J/K/mol
100 K | 18.26 | 25.25 J/K/mol
102.42 K | – | 26.14 J/K/mol
106.06 K | – | 26.79 J/K/mol
109.93 K | – | 27.68 J/K/mol
110 K | 20.77 | 27.55 J/K/mol
113.87 K | – | 28.52 J/K/mol
117.79 K | – | 29.35 J/K/mol
120 K | 23.26 | 29.66 J/K/mol
121.86 K | – | 30.17 J/K/mol
125.61 K | – | 30.87 J/K/mol
129.43 K | – | 31.59 J/K/mol
130 K | 25.71 | 31.58 J/K/mol
133.29 K | – | 32.28 J/K/mol
137.15 K | – | 32.9 J/K/mol
140 K | 28.12 | 33.3 J/K/mol
141.04 K | – | 33.52 J/K/mol
144.93 K | – | 34.17 J/K/mol
149.88 K | – | 35.06 J/K/mol
150 K | 30.47 | 34.85 J/K/mol
155.67 K | – | 35.74 J/K/mol
159.17 K | – | 36.12 J/K/mol
160 K | 32.76 | 36.24 J/K/mol
164 K | – | 36.77 J/K/mol
168.93 K | – | 37.35 J/K/mol
170 K | 35 | 37.49 J/K/mol
173.91 K | – | 37.96 J/K/mol
178.77 K | – | 38.48 J/K/mol
180 K | 37.17 | 38.6 J/K/mol
184.05 K | – | 38.9 J/K/mol
189.4 K | – | 39.43 J/K/mol
190 K | 39.29 | 39.6 J/K/mol
194.4 K | – | 39.95 J/K/mol
199.39 K | – | 40.39 J/K/mol
200 K | 41.34 | 40.5 J/K/mol
204.53 K | – | 40.77 J/K/mol
209.77 K | – | 41.2 J/K/mol
210 K | 43.34 | 41.32 J/K/mol
214.65 K | – | 41.55 J/K/mol
219.66 K | – | 41.93 J/K/mol
220 K | 45.28 | 42.05 J/K/mol
224.69 K | – | 42.27 J/K/mol
230 K | 47.16 | 42.62 J/K/mol and 42.72 J/K/mol
235.27 K | – | 42.91 J/K/mol
240 K | 48.99 | 43.32 J/K/mol
240.27 K | – | 43.24 J/K/mol
245.33 K | – | 43.69 J/K/mol
250 K | 50.77 | 43.88 J/K/mol
250.45 K | – | 43.78 J/K/mol
258.21 K | – | 44.25 J/K/mol
260 K | 52.5 | 44.38 J/K/mol
263.65 K | – | 44.4 J/K/mol
269.02 K | – | 44.71 J/K/mol
270 K | 54.19 | 44.84 J/K/mol
274.56 K | – | 44.99 J/K/mol
280 K | 55.83 | 45.27 J/K/mol
280.13 K | – | 45.24 J/K/mol
285.72 K | – | 45.48 J/K/mol
290 K | 57.42 | 45.66 J/K/mol
291.19 K | – | 45.73 J/K/mol
297.09 K | – | 45.7 J/K/mol
300 K | 58.98 | 46.03 J/K/mol
304.72 K | – | 46.14 J/K/mol
310 K | 60.49 | 46.36 J/K/mol
312.85 K | – | 46.5 J/K/mol
320 K | 61.97 | 46.68 J/K/mol
